Assay: in vitro
Conditions: human, hela cells, % viability

CN(Cc1nc2c(s1)CCCC2)C(=O)c1ccc2[nH]cnc2c1 [CBK304138]
viability at 28.5 h, 10 µM: 88.4%

COc1ccc(C(C)NC2CCN(c3ccccn3)CC2)cc1F (stereo not shown) [CBK304146]
viability at 28.5 h, 10 µM: 86.8%

OC(CSc1ncnc2sc3c(c12)CCC3)Cn1cccn1 (stereo not shown) [CBK304149]
viability at 28.5 h, 10 µM: 72.3%

CC(=O)Nc1ccc(NC(=O)NCC2CCCO2)c(C(F)(F)F)c1 (stereo not shown) [CBK304150]
viability at 28.5 h, 10 µM: 92.8%

COCc1nc(CN2CCNC(=O)C2c2ccccc2C(F)(F)F)no1 (stereo not shown) [CBK304157]
viability at 28.5 h, 10 µM: 87.2%

Cc1ncn(Cc2nc(-c3ccsc3)no2)c(=O)c1C [CBK304158]
viability at 28.5 h, 10 µM: 113%

Cc1cnn(C2CCN(C(=O)NC(C)C3OCCc4sccc43)C2)c1 (stereo not shown) [CBK304159]
viability at 28.5 h, 10 µM: 96.8%

COCc1ccsc1C(=O)Nc1ncn(CC(=O)N2CCCCCC2)n1 [CBK304160]
viability at 28.5 h, 10 µM: 94.9%

Cc1nc(-c2cccnc2)[nH]c(=O)c1CCC(=O)N1CCNC(C)C1 (stereo not shown) [CBK304163]
viability at 28.5 h, 10 µM: 102%

CC1(O)CCN(Cc2nnnn2-c2ccc(S(C)(=O)=O)cc2)CC1 [CBK304166]
viability at 28.5 h, 10 µM: 99.2%

CCCCNc1cc(N(C)Cc2cnn(C)c2)nc(N)n1 [CBK304167]
viability at 28.5 h, 10 µM: 62.6%

Cc1noc(C)c1S(=O)(=O)N1CCOCC1c1cccc(F)c1 (stereo not shown) [CBK304171]
viability at 28.5 h, 10 µM: 109%

CCOC(=O)C(NC(=O)c1cc[nH]c(=O)c1)c1cccc(C)c1C (stereo not shown) [CBK304174]
viability at 28.5 h, 10 µM: 97.1%

COCCc1noc(CC2CCN(c3ccc(Cl)c(C#N)n3)CC2)n1 [CBK304177]
viability at 28.5 h, 10 µM: 97.5%

COCCc1noc(CC2CCN(c3ncncc3C#N)CC2)n1 [CBK304178]
viability at 28.5 h, 10 µM: 90.5%

CCn1c(C)nnc1CN(CC1CCCO1)C1CCCC1 (stereo not shown) [CBK304181]
viability at 28.5 h, 10 µM: 96.4%

Cc1cnn(C2CCN(C(=O)CC3OCCc4ccccc43)CC2)c1 (stereo not shown) [CBK304186]
viability at 28.5 h, 10 µM: 93.6%

Cn1cc(CC2CCN(Cc3ccc(Oc4cnccn4)cc3)C2)cn1 (stereo not shown) [CBK304188]
viability at 28.5 h, 10 µM: 108%

CCn1c(CN2CCC(c3cc(O)nc(N)n3)C2)nc2c(F)cccc21 (stereo not shown) [CBK304189]
viability at 28.5 h, 10 µM: 87.5%

CC(C)C(CNCc1cncnc1)c1ccnn1C (stereo not shown) [CBK304190]
viability at 28.5 h, 10 µM: 79.9%

CCOC(=O)c1cn(CC2CC2)c2cc(F)c(F)cc2c1=O [CBK304195]
viability at 28.5 h, 10 µM: 98.1%

NCC1CCCN1C(=O)c1ccc(Oc2cccc(Br)c2)nc1 (stereo not shown) [CBK304200]
viability at 28.5 h, 10 µM: 95.5%

c1ccc(Cc2csc(C3CN4CCCC4CO3)n2)cc1 (stereo not shown) [CBK304202]
viability at 28.5 h, 10 µM: 90.2%

COCCc1noc(CC2CCN(c3nc(C#N)c(Cl)s3)CC2)n1 [CBK304205]
viability at 28.5 h, 10 µM: 102%

O=C(c1cnn(-c2cccc(Cl)c2)c1)N1CCOCC1CC(F)F (stereo not shown) [CBK304207]
viability at 28.5 h, 10 µM: 95.5%

CCOC(=O)C1CSCCN1C(=O)c1ccc(-c2cnco2)cc1 (stereo not shown) [CBK304208]
viability at 28.5 h, 10 µM: 84.9%

CCOC(=O)c1cn(CC#N)c2cc(F)c(F)cc2c1=O [CBK304211]
viability at 28.5 h, 10 µM: 98.3%

Cc1nn(C)c(C(=O)Nc2sc3c(c2C#N)CCC(C)C3)c1Br (stereo not shown) [CBK304212]
viability at 28.5 h, 10 µM: 104%

CC1CCCN(CCCNS(=O)(=O)c2ccc(N3CCCC3=O)cc2)C1 (stereo not shown) [CBK304213]
viability at 28.5 h, 10 µM: 90%

CCCC(=O)Nc1ccc(C(=O)N2CCN(CC)CC2)cc1 [CBK304218]
viability at 28.5 h, 10 µM: 88.6%

Cc1nc2cc(C(=O)N3CCCCC3CN3CCOCC3)ccc2[nH]1 (stereo not shown) [CBK304219]
viability at 28.5 h, 10 µM: 109%

CC1CCN(CCCNS(=O)(=O)c2ccc(N3CCCC3=O)cc2)CC1 [CBK304220]
viability at 28.5 h, 10 µM: 95.9%

Cc1nn(CC(=O)N2CCN(C)CC2)c(=O)c2ccccc12 [CBK304221]
viability at 28.5 h, 10 µM: 93.3%

CCn1cc(C2CN(S(=O)(=O)c3cccc(COC)c3)CCO2)cn1 (stereo not shown) [CBK304222]
viability at 28.5 h, 10 µM: 93.7%

CCn1cc(C2CN(S(=O)(=O)c3cc(C)c(OC)c(C)c3)CCO2)cn1 (stereo not shown) [CBK304224]
viability at 28.5 h, 10 µM: 85.8%

CCOC(=O)Cc1csc(SC(C)C(=O)N2CCCc3ccccc32)n1 (stereo not shown) [CBK304228]
viability at 28.5 h, 10 µM: 98.9%

CCN(CC(=O)NC(C)(C)C)Cc1nc(-c2cccc(Br)c2)no1 [CBK304230]
viability at 28.5 h, 10 µM: 102%

CN(Cc1ccsc1)C(=O)c1cccc(S(=O)(=O)NCC2CCCO2)c1 (stereo not shown) [CBK304232]
viability at 28.5 h, 10 µM: 83.7%

Cc1nc(COc2ccc(Cl)cc2)sc1C(=O)N1CCCCC1C(=O)O (stereo not shown) [CBK304233]
viability at 28.5 h, 10 µM: 87.9%

COc1ccc(Br)c(C(CO)N(C)C(=O)CC#N)c1 (stereo not shown) [CBK304240]
viability at 28.5 h, 10 µM: 88%

Cn1ncc2c(NCc3cccc(Cn4cncn4)c3)ncnc21 [CBK304241]
viability at 28.5 h, 10 µM: 89.9%

Cc1nc(C(=O)NCC2CN3CCCN2CC3)ccc1C(=O)O (stereo not shown) [CBK304242]
viability at 28.5 h, 10 µM: 94%

CN(C(=O)C12CCOCC1CN(c1nccnc1C#N)C2)C1CCCC1 (stereo not shown) [CBK304244]
viability at 28.5 h, 10 µM: 93.6%

CC(Cc1nc(-c2cnnn2C)cs1)n1cc(Cl)cn1 (stereo not shown) [CBK304245]
viability at 28.5 h, 10 µM: 99.6%

CC(C)(C)OC(=O)N1CCC(N(CCCO)Cc2ccccn2)CC1 [CBK304246]
viability at 28.5 h, 10 µM: 95.1%

COc1cc(C(C)NC2CCN(c3nc(C)cs3)CC2)ccn1 (stereo not shown) [CBK304247]
viability at 28.5 h, 10 µM: 83.4%

CC(Cc1nc(-c2nccn2C(C)C)cs1)n1cc(Cl)cn1 (stereo not shown) [CBK304251]
viability at 28.5 h, 10 µM: 102%

COCC1(O)CCN(Cc2sccc2Cl)CC1 [CBK304252]
viability at 28.5 h, 10 µM: 98.7%

CCOC(=O)C(NC(=O)c1c(C)nn(C)c1C)c1cccc(C)c1C (stereo not shown) [CBK304253]
viability at 28.5 h, 10 µM: 98.9%

Cc1ncsc1CCS(=O)(=O)N1CCOCC1c1cccc(F)c1 (stereo not shown) [CBK304254]
viability at 28.5 h, 10 µM: 91%

CC(Cc1nc(-c2cnn(C)n2)cs1)n1cc(Cl)cn1 (stereo not shown) [CBK304256]
viability at 28.5 h, 10 µM: 90.8%

CCc1ccc(C(O)CNC2CCN(CCOC)CC2)cc1 (stereo not shown) [CBK304259]
viability at 28.5 h, 10 µM: 104%

Cc1nc(C(=O)NC2CCN(C)CC2)ccc1C(=O)O [CBK304262]
viability at 28.5 h, 10 µM: 95.2%

CC(NCC(O)c1ccco1)c1ccc(C#N)s1 (stereo not shown) [CBK304265]
viability at 28.5 h, 10 µM: 85.9%

O=C(C1CC(O)CN1)N1CC2(CCCC2)c2c(F)cccc21 (stereo not shown) [CBK304269C]
viability at 28.5 h, 10 µM: 99%

Cn1cc(C2CNCCN2C(=O)c2coc3ccccc23)cn1 (stereo not shown) [CBK304270C]
viability at 28.5 h, 10 µM: 87%

CC(N)C1CCCCN1S(=O)(=O)c1ccc(OCc2ncnn2C)cc1 (stereo not shown) [CBK304272C]
viability at 28.5 h, 10 µM: 94.3%

COc1ccccc1-c1cc2nc(C)cc(NCC3CCCO3)n2n1 (stereo not shown) [CBK304277]
viability at 28.5 h, 10 µM: 96.5%

O=C(NCCNc1cnccn1)c1cncc(Br)c1 [CBK304278]
viability at 28.5 h, 10 µM: 111%

CC1CCC2(CC1)NC(=O)N(Cc1csc(-c3ccco3)n1)C2=O (stereo not shown) [CBK304279]
viability at 28.5 h, 10 µM: 98.6%

CC(C)(C)OC(=O)N1CCCC(C(=O)NCCc2ccccn2)C1 (stereo not shown) [CBK304281]
viability at 28.5 h, 10 µM: 86.5%

O=C(Cc1cn2ccsc2n1)NCCS(=O)(=O)N1CCc2ccccc21 [CBK304282]
viability at 28.5 h, 10 µM: 75.4%

N#Cc1cccnc1N1CCC(NC(=O)c2cccnc2)CC1 [CBK304283]
viability at 28.5 h, 10 µM: 103%

CC1(C)CN(Cc2cccc(-c3ccccn3)c2)CCS1(=O)=O [CBK304284]
viability at 28.5 h, 10 µM: 99.8%

CCOc1ncccc1NC(=O)c1cnc2c(cnn2CC(C)C)c1 [CBK304288]
viability at 28.5 h, 10 µM: 83.3%

Cc1ccc2c(c1)nc(CNC(=O)NCc1ccnc(C)n1)n2C [CBK304292]
viability at 28.5 h, 10 µM: 101%

CCC(=O)Nc1ccc(-c2csc(N(C)C)n2)cc1 [CBK304294C]
viability at 28.5 h, 10 µM: 103%

COc1cc2c(cc1CNC1CCCc3c1cnn3C)OC(C)C2 (stereo not shown) [CBK304296C]
viability at 28.5 h, 10 µM: 94.6%

CN(C(=O)CN)c1nc2c(s1)CC(c1ccccc1)CC2 (stereo not shown) [CBK304298C]
viability at 28.5 h, 10 µM: 74.1%

CCc1noc(C)c1C(=O)N1CCC(NC)C1 (stereo not shown) [CBK304299C]
viability at 28.5 h, 10 µM: 100%

CCCN(C(=O)CCc1ccc(C)cc1C)C1CCNCC1 [CBK304302C]
viability at 28.5 h, 10 µM: 109%

COc1c(Cl)cc(Cl)cc1CNC1CCCc2c1cnn2C (stereo not shown) [CBK304305C]
viability at 28.5 h, 10 µM: 90.6%

COc1ccc(C)cc1C1(CNC(=O)C2CCCC2N)CCOCC1 (stereo not shown) [CBK304308C]
viability at 28.5 h, 10 µM: 108%

CNCC1CCN(S(=O)(=O)c2ccc(OCc3ncnn3C)cc2)CC1 [CBK304309C]
viability at 28.5 h, 10 µM: 97.6%

CN(C(=O)CCn1c(=O)oc2cc(Cl)ccc21)C1CCNC1 (stereo not shown) [CBK304310C]
viability at 28.5 h, 10 µM: 101%

COc1ccc(C)cc1C1(CNC(=O)C2CCC(N)C2)CCOCC1 (stereo not shown) [CBK304312C]
viability at 28.5 h, 10 µM: 107%

Cn1ncnc1COc1ccc(S(=O)(=O)N2CCCCC2CN)cc1 (stereo not shown) [CBK304313C]
viability at 28.5 h, 10 µM: 82.3%

CN(C)CCCNC(=O)c1cccc(S(=O)(=O)N2CCCCC2)c1 [CBK304314C]
viability at 28.5 h, 10 µM: 91.6%

CS(=O)(=O)NC1CCN(c2nc(C(=O)O)nc3ccccc23)CC1 [CBK304316N]
viability at 28.5 h, 10 µM: 105%

CC(C)C(=O)Nc1ccc(-c2csc(N3CCN(C)CC3)n2)cc1 [CBK304317C]
viability at 28.5 h, 10 µM: 93.5%

CN1CCN(c2nc(-c3ccc4c(c3)CCC(=O)N4)cs2)CC1 [CBK304319C]
viability at 28.5 h, 10 µM: 80.6%

CCn1cc(NC(=O)C(CC)(CC)CN)ccc1=O [CBK304320C]
viability at 28.5 h, 10 µM: 89.2%

CC(C)c1nn(C)c(N(C)C)c1CNCc1cscn1 [CBK304321C]
viability at 28.5 h, 10 µM: 84.4%

CCn1cc(Cl)c(C(=O)NC2CCN(c3cc(C)n[nH]3)CC2)n1 [CBK304322]
viability at 28.5 h, 10 µM: 91.8%

O=C(NC1CCS(=O)(=O)C1)c1cnc2c(OC(F)(F)F)cccc2c1O (stereo not shown) [CBK304323]
viability at 28.5 h, 10 µM: 99.7%

Cc1cc(NC(=O)CCn2cc(Br)cn2)no1 [CBK304326]
viability at 28.5 h, 10 µM: 102%

CCCOc1ccc(C(=O)N2CCN(c3ccccc3)CC2)cc1 [CBK304327]
viability at 28.5 h, 10 µM: 90.7%

CCOC(=O)c1cnc2ccccc2c1NCCN1CCOCC1 [CBK304328]
viability at 28.5 h, 10 µM: 101%

Cc1cc(NC(=O)C2CCN(C(=O)CCSc3ccccc3)CC2)no1 [CBK304329]
viability at 28.5 h, 10 µM: 99%

CC(C)(C)OC(=O)N1CCC(c2nc(-c3cccnc3)no2)CC1 [CBK304332]
viability at 28.5 h, 10 µM: 84.6%

Cc1csc(CN(C)C(=O)c2cc3sccc3[nH]2)n1 [CBK304334]
viability at 28.5 h, 10 µM: 92.7%

Cc1nn(C)cc1CNC(=O)c1cc2ncc(Br)cn2n1 [CBK304336]
viability at 28.5 h, 10 µM: 102%

CCCC(=O)Nc1ccc(C(=O)N2CCN(C)CC2)cc1 [CBK304337]
viability at 28.5 h, 10 µM: 100%

Cc1cc(CN(C)C(=O)c2cc3sccc3[nH]2)no1 [CBK304340]
viability at 28.5 h, 10 µM: 82.7%
